In the test the target is T1, C-terminal GST-tagged, recombinant, human IGF-1R, amino acids 954-1367 (Homo sapiens, UniProt P08069).
T1 construct: human IGF-1R, amino acids 954-1367 expressed by baculovirus in Sf21 cells; GST (C); purchased Cell Signaling Technology; host or cells: baculovirus in Sf21 cells
The test can be described thus: IGF-1R homogenous time-resolved fluorescence (HTRF) in vitro kinase assay. Type of test: biochemical. The conditions noted are these: IGF-1R kinase, ATP 50 μM final, biotinylated peptide substrate 0.5 μM, 60 minutes at room temperature. Here is the method:
IGF-1R kinase activity was assayed by a homogenous time-resolved fluorescence (HTRF) in vitro kinase assay (Mathis, G., HTRF(R) Technology. J Biomol Screen, 1999. 4(6): p. 309-314). Specifically, 10 μL C-terminal GST-tagged, recombinant, human IGF-1R, amino acids 954-1367 expressed by baculovirus in Sf21 cells (Cell Signaling Technology) was mixed with 10 μL inhibitor (various concentrations, 2% final DMSO) and 10 μL of ATP (50 μM final concentration) in reaction buffer (50 mM HEPES, pH 7.5, 10 mM MgCl2, 2 mM MnCl2, 0.1% BSA and 1 mM DTT, 40 μL final volume). The reaction was initiated by addition of 10 μL of biotinylated peptide substrate (Biotin-Ahx-[…], 0.5 μM final concentration) in a black 384-well plate (Packard). After 60 minutes incubation at room temperature, the reaction was quenched by addition of 60 μL stop/revelation buffer to give 30 mM EDTA, 1 μg/mL streptavidin-APC (Prozyme), 50 ng/mL anti-phosphotyrosine mAb PT66-K Europium Cryptate, 30 mM HEPES, pH 7.5, 120 mM KF, 0.005% Tween-20, 0.05% BSA). The quenched reaction was allowed to stand at room temperature for 1 hour and then read in a time-resolved fluorescence detector (Envision, Perkin Elmer) at 615 nm and 665 nm simultaneously. The ratio between the signal of 615 nm and 665 nm was used in the calculation of the IC50.
(In general: TR-FRET usually uses a lanthanide donor and a delayed reading to cut background.)

We go through 24 compounds from patent US8536180B2, “Pyrimidine inhibitors of kinase activity” (AbbVie Inc., priority 2009, dated 2013).

T1 sequence (P08069 954-1367): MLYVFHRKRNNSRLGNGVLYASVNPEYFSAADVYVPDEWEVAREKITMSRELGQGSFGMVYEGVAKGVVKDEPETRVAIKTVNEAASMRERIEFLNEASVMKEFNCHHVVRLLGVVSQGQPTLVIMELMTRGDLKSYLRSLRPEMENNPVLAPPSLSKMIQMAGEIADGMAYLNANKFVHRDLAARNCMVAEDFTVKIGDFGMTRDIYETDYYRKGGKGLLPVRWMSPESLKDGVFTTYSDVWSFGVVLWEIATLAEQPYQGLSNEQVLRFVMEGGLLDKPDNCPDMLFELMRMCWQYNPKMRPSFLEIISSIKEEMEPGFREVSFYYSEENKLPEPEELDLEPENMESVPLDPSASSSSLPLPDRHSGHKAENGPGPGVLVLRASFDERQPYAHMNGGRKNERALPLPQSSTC

Usually IC50 stands for the point on the concentration scale where inhibition reaches its midpoint. For `Fc1ccc(Nc2nccc(-c3c(-c4ccc5nc(-c6ccccc6)[nH]c5c4)nc4ccccn34)n2)c(F)c1` [Example 40, N-(2,4-difluorophenyl)-4-[2-(2-phenyl-1H-benzimidazol-6-yl)imidazo[1,2-a]pyridin-3-yl]pyrimidin-2-amine], the half-maximal inhibitory concentration (IC50) was over 0.5 µM. The figure for `Fc1ccc(Nc2nccc(-c3c(-c4ccc5[nH]c(Cc6ccccc6)nc5c4)nc4ccccn34)n2)c(F)c1` [Example 41, 4-[2-(2-benzyl-1H-benzimidazol-5-yl)imidazo[1,2-a]pyridin-3-yl]-N-(2,4-difluorophenyl)pyrimidin-2-amine] is 0.101 to 0.5 µM; for `FC(F)(F)c1ccccc1Cc1nc2ccc(-c3nc4sccn4c3-c3ccnc(Nc4ccccc4CN4CCCC4)n3)cc2[nH]1` [Example 42, N-[2-(pyrrolidin-1-ylmethyl)phenyl]-4-(6-{2-[2-(trifluoromethyl)benzyl]-1H-benzimidazol-6-yl}imidazo[2,1-b][1,3]thiazol-5-yl)pyrimidin-2-amine] it is over 0.5 µM.

Take `COc1ccc(S(C)(=O)=O)cc1Nc1nccc(-c2c(-c3ccc4nc(Cc5ccccc5)[nH]c4c3)nc3ccccn23)n1` [Example 43, 4-[2-(2-benzyl-1H-benzimidazol-6-yl)imidazo[1,2-a]pyridin-3-yl]-N-[2-methoxy-5-(methylsulfonyl)phenyl]pyrimidin-2-amine]: the concentration for half-maximal inhibition (IC50) lay within 0.01 to 0.05 µM. The figure for `Cn1cc(Nc2nccc(-c3c(-c4ccc5[nH]c(-c6ccccc6)nc5c4)nc4ccccn34)n2)cn1` [Example 44, N-(1-methyl-1H-pyrazol-4-yl)-4-[2-(2-phenyl-1H-benzimidazol-5-yl)imidazo[1,2-a]pyridin-3-yl]pyrimidin-2-amine] is over 0.5 µM; for `COc1ccc(C(F)(F)F)cc1Nc1nccc(-c2c(-c3ccc4nc(Cc5ccccc5)[nH]c4c3)nc3ccccn23)n1` [Example 45, 4-[2-(2-benzyl-1H-benzimidazol-6-yl)imidazo[1,2-a]pyridin-3-yl]-N-[2-methoxy-5-(trifluoromethyl)phenyl]pyrimidin-2-amine] it is 0.101 to 0.5 µM; for `CN(C)Cc1ccc(Nc2nccc(-c3c(-c4ccc5nc(Cc6ccccc6C(F)(F)F)[nH]c5c4)nc4sccn34)n2)cc1` [Example 46, N-{4-[(dimethylamino)methyl]phenyl}-4-(6-{2-[2-(trifluoromethyl)benzyl]-1H-benzimidazol-6-yl}imidazo[2,1-b][1,3]thiazol-5-yl)pyrimidin-2-amine] it is 0.01 to 0.05 µM.

With `COc1cc(NCC(C)(C)O)ccc1Nc1nccc(-c2c(-c3ccc4[nH]c(Cc5ccccc5)nc4c3)nc3ccccn23)n1` [Example 47, 1-{[4-({4-[2-(2-benzyl-1H-benzimidazol-5-yl)imidazo[1,2-a]pyridin-3-yl]pyrimidin-2-yl}amino)-3-methoxyphenyl]amino}-2-methylpropan-2-ol], the IC50 was 0.01 to 0.05 µM. For `COc1cc(N(C)CCO)ccc1Nc1nccc(-c2c(-c3ccc4nc(Cc5ccccc5)[nH]c4c3)nc3ccccn23)n1` [Example 48, 2-[[4-({4-[2-(2-benzyl-1H-benzimidazol-6-yl)imidazo[1,2-a]pyridin-3-yl]pyrimidin-2-yl}amino)-3-methoxyphenyl](methyl)amino]ethanol], the IC50 was 0.01 to 0.05 µM.

Turning to `COc1cc(NCC(=O)O)ccc1Nc1nccc(-c2c(-c3ccc4[nH]c(Cc5ccccc5)nc4c3)nc3ccccn23)n1` [Example 49, N-[4-({4-[2-(2-benzyl-1H-benzimidazol-5-yl)imidazo[1,2-a]pyridin-3-yl]pyrimidin-2-yl}amino)-3-methoxyphenyl]glycine], the IC50 fell in the range of 0.01 to 0.05 µM. The figure for `COc1ccc(CN(C)CCO)cc1Nc1nccc(-c2c(-c3ccc4nc(Cc5ccccc5)[nH]c4c3)nc3ccccn23)n1` [Example 50, 2-[[3-({4-[2-(2-benzyl-1H-benzimidazol-6-yl)imidazo[1,2-a]pyridin-3-yl]pyrimidin-2-yl}amino)-4-methoxybenzyl](methyl)amino]ethanol] is 0.01 to 0.05 µM. Under `CN(C)CC(=O)Nc1cccc(Nc2nccc(-c3c(-c4ccc5nc(Cc6ccccc6)[nH]c5c4)nc4ccccn34)n2)c1` [Example 51, N^1-[3-({4-[2-(2-benzyl-1H-benzimidazol-6-yl)imidazo[1,2-a]pyridin-3-yl]pyrimidin-2-yl}amino)phenyl]-N^2,N^2-dimethylglycinamide] stands under 0.01 µM.

Consider `COc1cc(N2CCC(N(C)C)CC2)ccc1Nc1nccc(-c2c(-c3ccc4nc(Cc5ccccc5C(F)(F)F)[nH]c4c3)nc3sccn23)n1` [Example 52, N-{4-[4-(dimethylamino)piperidin-1-yl]-2-methoxyphenyl}-4-(6-{2-[2-(trifluoromethyl)benzyl]-1H-benzimidazol-6-yl}imidazo[2,1-b][1,3]thiazol-5-yl)pyrimidin-2-amine], for which the IC50 is under 0.01 µM. The figure for `COc1ccc(NC(=O)CN(C)C)cc1Nc1nccc(-c2c(-c3ccc4nc(Cc5ccccc5)[nH]c4c3)nc3ccccn23)n1` [Example 53, N^1-[3-({4-[2-(2-benzyl-1H-benzimidazol-6-yl)imidazo[1,2-a]pyridin-3-yl]pyrimidin-2-yl}amino)-4-methoxyphenyl]-N^2,N^2-dimethylglycinamide] is under 0.01 µM; for `COc1cc(N2CCC(N(C)C)CC2)ccc1Nc1nccc(-c2c(-c3ccc4nc(Cc5ccccc5Cl)[nH]c4c3)nc3sccn23)n1` [Example 54, 4-{6-[2-(2-chlorobenzyl)-1H-benzimidazol-6-yl]imidazo[2,1-b][1,3]thiazol-5-yl}-N-{4-[4-(dimethylamino)piperidin-1-yl]-2-methoxyphenyl}pyrimidin-2-amine] it is under 0.01 µM; for `COc1ccccc1Cc1nc2ccc(-c3nc4sccn4c3-c3ccnc(Nc4ccc(N5CCC(N(C)C)CC5)cc4OC)n3)cc2[nH]1` [Example 55, N-{4-[4-(dimethylamino)piperidin-1-yl]-2-methoxyphenyl}-4-{6-[2-(2-methoxybenzyl)-1H-benzimidazol-6-yl]imidazo[2,1-b][1,3]thiazol-5-yl}pyrimidin-2-amine] it is under 0.01 µM. The figure for `COc1cc(N2CCC(N(C)C)CC2)ccc1Nc1nccc(-c2c(-c3ccc4nc(Cc5ccccc5C)[nH]c4c3)nc3sccn23)n1` [Example 56, N-{4-[4-(dimethylamino)piperidin-1-yl]-2-methoxyphenyl}-4-{6-[2-(2-methylbenzyl)-1H-benzimidazol-6-yl]imidazo[2,1-b][1,3]thiazol-5-yl}pyrimidin-2-amine] is under 0.01 µM; for `CN(C)Cc1ccc(Nc2nccc(-c3c(-c4ccc5nc(Cc6ccccc6)[nH]c5c4)nc4sccn34)n2)cc1` [Example 57, 4-[6-(2-benzyl-1H-benzimidazol-6-yl)imidazo[2,1-b][1,3]thiazol-5-yl]-N-{4-[(dimethylamino)methyl]phenyl}pyrimidin-2-amine] it is under 0.01 µM; for `CN(C)Cc1ccccc1Nc1nccc(-c2c(-c3ccc4nc(Cc5ccccc5)[nH]c4c3)nc3sccn23)n1` [Example 58, 4-[6-(2-benzyl-1H-benzimidazol-6-yl)imidazo[2,1-b][1,3]thiazol-5-yl]-N-{2-[(dimethylamino)methyl]phenyl}pyrimidin-2-amine] it is over 0.5 µM. The figure for `O=C1CCCN1c1cccc(Nc2nccc(-c3c[nH]nc3-c3ccc4[nH]c(Cc5ccccc5Cl)nc4c3)n2)c1` [Example 59, 1-{3-[(4-{3-[2-(2-chlorobenzyl)-1H-benzimidazol-5-yl]-1H-pyrazol-4-yl}pyrimidin-2-yl)amino]phenyl}pyrrolidin-2-one] is 0.101 to 0.5 µM. On to `CCn1cc(-c2ccnc(Nc3cccc(CN(C)C)c3)n2)c(-c2ccc3[nH]c(Cc4ccccc4OC)nc3c2)n1` [Example 60, N-{3-[(dimethylamino)methyl]phenyl}-4-{1-ethyl-3-[2-(2-methoxybenzyl)-1H-benzimidazol-5-yl]-1H-pyrazol-4-yl}pyrimidin-2-amine], for which the concentration for half-maximal inhibition (IC50) was in the range of 0.01 to 0.05 µM.

For the compound `CCn1cc(-c2ccnc(Nc3cccc(CN(C)C)c3)n2)c(-c2ccc3[nH]c(Cc4ccccc4Cl)nc3c2)n1` [Example 61, 4-{3-[2-(2-chlorobenzyl)-1H-benzimidazol-5-yl]-1-ethyl-1H-pyrazol-4-yl}-N-{3-[(dimethylamino)methyl]phenyl}pyrimidin-2-amine], the concentration for half-maximal inhibition (IC50) was 0.01 to 0.05 µM.

On to `CCn1cc(-c2ccnc(Nc3cccc(CN(C)C)c3)n2)c(-c2ccc3[nH]c(Nc4ccccc4)nc3c2)n1` [Example 62, 5-{4-[2-({3-[(dimethylamino)methyl]phenyl}amino)pyrimidin-4-yl]-1-ethyl-1H-pyrazol-3-yl}-N-phenyl-1H-benzimidazol-2-amine], for which the half-inhibitory concentration (IC50) was 0.01 to 0.05 µM. Consider `CCn1cc(-c2ccnc(Nc3cccc(CN(C)C)c3)n2)c(-c2ccc3[nH]c(Cc4ccccc4)nc3c2)n1` [Example 63, 4-[3-(2-benzyl-1H-benzimidazol-5-yl)-1-ethyl-1H-pyrazol-4-yl]-N-{3-[(dimethylamino)methyl]phenyl}pyrimidin-2-amine], for which the IC50 fell in the range of 0.01 to 0.05 µM.
